The structures appear in SMILES notation.

`Cl.N[C@@H](CCC(=O)OCCCO[N+](=O)[O-])C(=O)O` returned a melting point of 137 to 139 °C.
Regarding `Cl.N[C@@H](CCC(=O)OC(CO[N+](=O)[O-])CO[N+](=O)[O-])C(=O)O`, the melting point is 139 °C (dec.).
As for `CC(C)(COC(=O)CC[C@H](N)C(=O)O)CO[N+](=O)[O-].Cl`, the figure is 132 to 135 °C; as for `Cl.N[C@@H](CCC(=O)OCc1ccc(CO[N+](=O)[O-])cc1)C(=O)O`, 135 to 138 °C.
As for `Cl.N[C@@H](CCC(=O)OCC#CCO[N+](=O)[O-])C(=O)O`, the melting point is 107 to 110 °C.
For `Cl.N[C@@H](CCC(=O)N1CCCC(CO[N+](=O)[O-])C1)C(=O)O` (some centres unmarked) the value was 70 to 72 °C (dec.); for `Cl.N[C@@H](CCC(=O)OCCCC(CO[N+](=O)[O-])O[N+](=O)[O-])C(=O)O` (some centres unmarked), 90 to 94 °C.
Compound `Cl.N[C@@H](CCC(=O)N1CCC(CCO[N+](=O)[O-])CC1)C(=O)O` showed a melting point of 137 to 140 °C.
For `Cl.N[C@@H](CCC(=O)NCCCO[N+](=O)[O-])C(=O)O` the value was 57 to 60 °C; for `CC(C)(CNC(=O)CC[C@H](N)C(=O)O)CO[N+](=O)[O-].Cl`, 65 to 68 °C.
`Cl.N[C@@H](CCC(=O)O[C@H]1CO[C@H]2[C@@H]1OC[C@H]2O[N+](=O)[O-])C(=O)O` (stereo in doubt) showed a melting point of 160 to 162 °C.
